Some test systems named below: HL-60; UO-31; Hs-578T; TK-10; HCC 2998; NCI-H23; CAKI-1; SK-MEL-28; U-251; NCI-H522; T47D; OVCAR-4; HOP-92; IGROV-1; OVCAR-5; MDA-MB-435; SF-295; HCT-15; HOP-62; UACC-257.
Holding throughout (experiment): growth of human tumour cells (NCI), 48 h

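96-well plates; 48 h exposure; 5 concentrations. Endpoints by linear interpolation between flanking doses. Not reached: highest tested concentration assigned. At the GI50, growth is halved.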 Active and inactive are the calls of the source. No stated cut-off is given here; in the data, active = GI50 up to about 1.1 µM and inactive = higher. A value given as a limit tells only on which side of the number the result lay.

From ChEMBL document CHEMBL1201862, “PubChem BioAssay data set” (2004) come the findings set out here.

Turning to `COC(=O)c1c(OC(C)=O)ccc2c1c1c(OC(C)=O)c3ccccc3c(OC(C)=O)c1n2C`, the GI50 in the test on HL-60 is 22.1 µM (inactive); with UO-31, 25.1 µM (inactive); with Hs-578T it was 18.3 µM (inactive); with TK-10, 26.8 µM (inactive); in the test with HCC 2998, 23.7 µM (inactive); with NCI-H23, 40.8 µM (inactive). Also, the GI50 was 17.8 µM (inactive) with CAKI-1; 53.7 µM (inactive) with SK-MEL-28; 24.8 µM (inactive) in the test with U-251; 12.9 µM (inactive) in the test with NCI-H522; 12.3 µM (inactive) with T47D; 19.4 µM (inactive) with OVCAR-4. Also, the GI50 is 4.39 µM (inactive) in the test with HOP-92; 7.87 µM (inactive) in the test with IGROV-1; 38.1 µM (inactive) in the test on OVCAR-5; 37.8 µM (inactive) in the test with MDA-MB-435; 21.2 µM (inactive) in the test with SF-295; 27.9 µM in the test with HCT-15. The GI50 in the test on HOP-62 was 24.4 µM (inactive).
As for `O=C1CC2(CCCc3sccc32)C(=O)N1` (stereo unspecified), the GI50 in the test with UACC-257, in the test on HL-60, with UO-31, in the test on Hs-578T, in the test on TK-10 and in the test on HCC 2998 was > 100 µM (inactive) each time. In addition, the GI50 in the test with NCI-H23, with CAKI-1, with SK-MEL-28, in the test with U-251, in the test with NCI-H522 and in the test on T47D was > 100 µM (inactive) in each case. Besides, the GI50 with OVCAR-4, in the test on HOP-92, with IGROV-1, with OVCAR-5, in the test with MDA-MB-435 and in the test on SF-295 was > 100 µM (inactive) each time. Besides, the results for the GI50 in the test on HCT-15 and in the test on HOP-62 were more than 100 µM and > 100 µM (inactive), respectively.
Regarding `CC(=O)c1c(C(F)(F)F)[n+]([O-])c2cc(Cl)c(Cl)cc2[n+]1[O-]`, the GI50 with UACC-257 is 0.762 µM (active); in the test on HL-60 it was 0.338 µM (active); in the test with UO-31, 0.41 µM (active); in the test with Hs-578T, 0.483 µM (active); in the test on TK-10 it was 0.212 µM (active); with HCC 2998, 0.184 µM (active). Also, the GI50 was 0.938 µM (active) with NCI-H23; 1.44 µM (inactive) in the test with CAKI-1; 1.88 µM (inactive) with SK-MEL-28; 1.24 µM (inactive) with U-251; 0.165 µM (active) in the test with NCI-H522; 0.338 µM (active) with T47D. In addition, the GI50 in the test with OVCAR-4 was 1.4 µM (inactive); in the test on HOP-92 it was 0.195 µM (active); in the test on IGROV-1, 0.111 µM (active); in the test with OVCAR-5, 1.63 µM (inactive); in the test with MDA-MB-435 it was 1.3 µM (inactive); in the test with SF-295, 0.719 µM (active). Moreover, the GI50 was 0.196 µM with HCT-15 and 0.27 µM (active) in the test with HOP-62.
Consider `O=C(Nc1ccccc1)OC1OC(COC(=O)c2ccccc2)C(OC(=O)c2ccccc2)C1OS(=O)(=O)c1ccc([N+](=O)[O-])cc1` (stereo unspecified), for which the GI50 with UACC-257 is > 100 µM (inactive); with HL-60, 86.7 µM (inactive); with UO-31, > 100 µM (inactive); in the test with Hs-578T it was 78.7 µM (inactive); in the test with TK-10, > 100 µM (inactive); in the test on HCC 2998, > 100 µM (inactive). For the same compound, the GI50 is > 100 µM (inactive) with NCI-H23; > 100 µM (inactive) in the test on CAKI-1; > 100 µM (inactive) with SK-MEL-28; > 100 µM (inactive) in the test on U-251; 40.3 µM (inactive) in the test with NCI-H522; > 100 µM (inactive) with T47D. Moreover, the GI50 in the test with OVCAR-4, with HOP-92, in the test on IGROV-1, in the test on OVCAR-5, with MDA-MB-435 and in the test with SF-295 was > 100 µM (inactive) each time. Besides, the GI50 was more than 100 µM in the test on HCT-15 and > 100 µM (inactive) in the test on HOP-62.
`COC(=O)c1ccc([N+](=O)[O-])c(O)c1`: the GI50 in the test with UACC-257, in the test on HL-60, with UO-31, in the test with Hs-578T, in the test on TK-10 and in the test with HCC 2998 was > 100 µM (inactive) each time. Moreover, the GI50 in the test on NCI-H23, with CAKI-1, in the test with SK-MEL-28, with U-251, in the test on NCI-H522 and in the test on T47D was > 100 µM (inactive) throughout. Also, the GI50 in the test with OVCAR-4 is 19.9 µM (inactive); with HOP-92, > 100 µM (inactive); in the test with IGROV-1, > 100 µM (inactive); in the test on OVCAR-5, > 100 µM (inactive); in the test on MDA-MB-435, 8.55 µM (inactive); in the test on SF-295, > 100 µM (inactive). For the same compound, the GI50 with HCT-15 was more than 100 µM; with HOP-62, > 100 µM (inactive).
Consider `O=C1C=C(Nc2ccc(S(=O)(=O)Nc3nccs3)cc2)c2ccccc2C1=O`, for which the GI50 in the test on UACC-257 was 31.6 µM (inactive); in the test on HL-60 it was 24.7 µM (inactive); in the test with UO-31, 56.9 µM (inactive); with Hs-578T it was 25.8 µM (inactive); in the test on TK-10, > 100 µM (inactive); in the test on HCC 2998, 22.2 µM (inactive). The GI50 in the test on NCI-H23 is 35.6 µM (inactive); in the test with CAKI-1 it was 26.8 µM (inactive); with SK-MEL-28 it was 16.5 µM (inactive); in the test with U-251, 21.6 µM (inactive); in the test with NCI-H522, 38.5 µM (inactive); in the test with T47D, 69.5 µM (inactive). The GI50 was 32.9 µM (inactive) with OVCAR-4; 34.5 µM (inactive) in the test with HOP-92; 12.5 µM (inactive) in the test with IGROV-1; 17.5 µM (inactive) in the test with OVCAR-5; 17.7 µM (inactive) in the test with MDA-MB-435; 18 µM (inactive) in the test with SF-295. Besides, the GI50 with HCT-15 was 23.7 µM; in the test on HOP-62, 15.4 µM (inactive).
Turning to `COc1ccc(N2C(=O)/C(=C\c3cccc(Oc4ccccc4)c3)SC2c2ccccc2)cc1` (stereo unspecified), the GI50 was 38.7 µM (inactive) in the test with UACC-257; 20.5 µM (inactive) in the test on HL-60; 37.4 µM (inactive) with UO-31; 10.3 µM (inactive) with Hs-578T; > 100 µM (inactive) with TK-10; > 100 µM (inactive) in the test on HCC 2998. The GI50 in the test on NCI-H23 was 41.7 µM (inactive); in the test on CAKI-1, > 100 µM (inactive); with SK-MEL-28 it was 38.1 µM (inactive); with U-251, 26.1 µM (inactive); in the test on NCI-H522 it was 8.24 µM (inactive); in the test with T47D, 37.5 µM (inactive). The GI50 in the test with OVCAR-4 is 40.2 µM (inactive); in the test on HOP-92 it was 28.2 µM (inactive); with OVCAR-5 it was > 100 µM (inactive); in the test with MDA-MB-435, 30.5 µM (inactive); with SF-295 it was 60 µM (inactive); with HCT-15 it was more than 100 µM. Moreover, the GI50 with HOP-62 was 64.9 µM (inactive).
For `COC(=O)C1=C(O)c2ccc(Cl)cc2S(=O)(=O)N1C`, the GI50 with UACC-257 was 93.3 µM (inactive); in the test on HL-60 it was 33.8 µM (inactive); in the test with UO-31, > 10 µM (inactive); with Hs-578T it was > 100 µM (inactive); with TK-10, > 100 µM (inactive); in the test with HCC 2998 it was > 100 µM (inactive). Moreover, the GI50 with NCI-H23 was 58.9 µM (inactive); with CAKI-1, > 100 µM (inactive); in the test on SK-MEL-28, > 100 µM (inactive); in the test with U-251 it was 81.3 µM (inactive); in the test with NCI-H522 it was 34.8 µM (inactive); in the test on T47D, > 100 µM (inactive). The GI50 is 45.1 µM (inactive) in the test on OVCAR-4; 59 µM (inactive) in the test with HOP-92; 78 µM (inactive) in the test with IGROV-1; > 100 µM (inactive) in the test on OVCAR-5; > 100 µM (inactive) in the test with MDA-MB-435; 60.5 µM (inactive) in the test on SF-295. The GI50 with HCT-15 was 45.1 µM; in the test on HOP-62, > 10 µM (inactive).
For `CN(C)CCOc1ccc(-c2c(Oc3ccc(Cl)cc3)c(=O)oc3ccccc23)cc1`, the GI50 in the test on UACC-257 was 5.13 µM (inactive); with HL-60 it was 5.61 µM (inactive); in the test on UO-31 it was 5.43 µM (inactive); with Hs-578T it was 8.59 µM (inactive); in the test on TK-10, 10.4 µM (inactive); in the test with HCC 2998 it was 3.15 µM (inactive). Besides, the GI50 in the test with NCI-H23 was 14.5 µM (inactive); in the test with CAKI-1 it was 12.9 µM (inactive); in the test with SK-MEL-28, 3.27 µM (inactive); in the test on U-251 it was 3.64 µM (inactive); in the test on NCI-H522 it was 8.75 µM (inactive); in the test on T47D it was 8.87 µM (inactive). In addition, the GI50 in the test with OVCAR-4 was 9.68 µM (inactive); in the test with HOP-92, 19.5 µM (inactive); in the test on IGROV-1 it was 4.7 µM (inactive); with OVCAR-5, 15.8 µM (inactive); with MDA-MB-435 it was 2.67 µM (inactive); in the test with SF-295, 5.36 µM (inactive). Also, the GI50 in the test on HCT-15 is 6.95 µM; in the test on HOP-62, 21.9 µM (inactive).
Regarding `CCOC(=O)/C(C(C)=O)=C(\OC(C)=O)c1ccncc1C(=O)O`, the GI50 in the test with UACC-257, in the test on HL-60, in the test with UO-31, in the test with Hs-578T, in the test with HCC 2998 and with NCI-H23 was > 100 µM (inactive) each time. Moreover, the GI50 in the test on CAKI-1, in the test with SK-MEL-28, in the test with U-251, in the test on NCI-H522, in the test with T47D and with OVCAR-4 was > 100 µM (inactive) in each case. Besides, the GI50 was > 100 µM (inactive) in the test with HOP-92; > 100 µM (inactive) in the test with IGROV-1; > 100 µM (inactive) in the test with OVCAR-5; > 100 µM (inactive) in the test with MDA-MB-435; > 100 µM (inactive) in the test with SF-295; more than 100 µM in the test with HCT-15.
